In patent US5013546A, “Methods for modulating antibody production in treating patients with AIDS, ARC and other diseases” (Imreg, Inc., priority 1990, dated 1991):

Key:
[1] = tested on: immunoglobulin-producing cells (plaque forming cells) in pokeweed mitogen-exposed PBLs; assay: RHPFC assay, PWM-stimulated PBLs of a normal subject cultured 6 days with amplifier; assay type: cell-based, human; settings: averaged data
Description: In order to ascertain whether modulation of B-cell response is appropriate in a particular subject, and to titrate administration of amplifier appropriately for that subject, it is desirable to have a method for assaying the subject's immunoglobulin response. The method described below cultures mitogen-exposed cells in the presence and absence of added amplifier. Then the formation of plaque forming cells (PFCs) is assayed by a reverse hemolytic assay to determine whether and to what extent amplifier modulates formation of PFCs. A dose-dependent amplifier modulation of PFC formation is observed. The PFC assay described hereinafter is a modification of a conventional technique; it is believed that PFC assays have not hitherto been utilized to assess effects of the immunomodulators described herein.
Peripheral blood cell populations (hereinafter PBLs) from test subjects are prepared to isolate mononuclear cells, using conventional methods. The PBLs are adjusted to 10^6 cells/ml in RPM-1640 medium with 25 mM HEPES and L-glutamine (Whittaker Bioproducts), which has been supplemented with 10% heat-inactivated defined fetal bovine serum (Hy-Clone Labs.), 2% PSN Antibiotic (GIBCO Labs., Grand Island, N.Y.) (100×), and 1% extra L-glutamine (GIBCO Labs.) (100×). The resulting PBL mixture is set aside in an ice bucket (4° C.). […]

[2] = tested on: immunoglobulin-producing cells (plaque forming cells) in PWM-activated PBLs; assay: Modified RHPFC assay, amplifier added after B cells were potentiated (7th day); assay type: cell-based, human; settings: amplifier added after potentiation
Description: The foregoing protocol 1 was then altered to test the in vitro effect of adding amplifiers Beta-1.0 or Beta-1.11 to the culture after B cells had already been potentiated (differentiated). Therefore, no amplifier was mixed with the PWM-activated cells at the outset, as in Example 1. Instead, at the stage where 1.12% agarose and Protein A-SRBC reagent are added (here, the 7th day), 25 ul of different amplifier dilutions is also added to the various replicates. The protocol was otherwise the same.
The procedure of Example 6 was repeated with the modified protocol just described.

[3] = tested on: patients with AIDS or ARC with elevated IgG and IgA; assay: AIDS/ARC patients, effect of amplifier on serum Ig levels; assay type: in vivo, human; settings: 50 pg biweekly, protocol of Example 10
Description: A group of 14 patients with AIDS or ARC were treated biweekly with a standard dosage of IMREG-1 (Beta-1.0), until six doses were given. All 14 initially had elevated IgG production and 13 also had elevated IgA production.
Data was averaged for the 14 high-IgG and 13 high-IgA patients.
A group of patients with AIDS or ARC are treated biweekly with 50 pg of ZB-4, according to the protocol of Example 10.
A group of patients with AIDS or ARC are treated biweekly with 50 pg of Beta-1.11, according to the protocol of Example 10.
A group of patients with AIDS or ARC are treated biweekly with 50 pg of Beta-1.12, according to the protocol of Example 10.

[4] = tested on: patient with AIDS or ARC, excessive immunoglobulin production; assay: Titration of amplifier dosage, AIDS or ARC patient with elevated serum IgG; assay type: in vivo, human; settings: 20 to 80 pg intradermal biweekly for eight weeks, 80 kg patient; before greater than 1400 mg/dl
Description: A patient suffers from AIDS or ARC, and they have an elevated serum immunoglobulin (IgG) level (greater than 1400 mg/dl), indicative to the attending physician of excessive immunoglobulin production. The physician considers it therapeutically desirable to lower the patient's level of immunoglobulin production.
(§1) The physician assays the patient's immunoglobulin response by the protocol of Examples 1-4, or alternative as in Example using ZB-4 (Beta-1.11). The patient weighs 80 kg. The physician therefore administers intradermal injections of 20 to 80 pg of ZB-4 (0.25 to 1 pg/kg of body weight) in sterile saline, biweekly, for eight weeks, and then retests. (The appropriate amount is determined by trial and error, and is subject to the physician's discretion. It is believed that 0.25 pg/kg is an appropriate starting point for such trial and error determination in the case of excessive Ig production.)

[5] = tested on: patient with common variable immunodeficiency, insufficient immunoglobulin production; assay: Titration of amplifier dosage, patient with common variable immunodeficiency; assay type: in vivo, human; settings: 20 to 80 pg intradermal biweekly for eight weeks, 80 kg patient; before 350 ml/dl
Description: A patient suffers from common variable immunodeficiency, and they have an lowered serum immunoglobulin (IgG) level ([…]), indicative to the attending physician of insufficient immunoglobulin production. The physician considers it therapeutically desirable to raise the patient's level of immunoglobulin production.
as §1, with “The” for “The physician assays the patient's immunoglobulin response by the protocol of Examples 1-4, or alternative as in Example using ZB-4 (Beta-1.11). The”, “that 1” for “that 0.25”, “of insufficient” for “of excessive”

[6] = per 1 fg of the peptide; cited from earlier work

Substance	maximum PFC factor relative to control ([1]; at 100 to 150 pM)	minimum PFC factor relative to control ([1]; between 1 and 10 pM)	concentration at maximum PFC factor [2] [pM]	maximum PFC factor relative to control [2]	minimum PFC factor [2]	effect on Ig levels [3]	serum immunoglobulin (IgG) level after treatment [4] [mg/dL]	serum immunoglobulin level (IgG) after treatment [5] [mg/dL]	amount of Beta-1.0 with approximately the same immunological activity as 1 fg [6]
Tyr-Gly [ZB-4]	from about half again to double the control PFC factor	from about a quarter to a half the control PFC factor	300 to 400	slightly less than the control	approximately 35 % of the control PFC factor	Substantially the same results are observed as were observed in Example 10	1280	710	5-10 fg
Tyr-Gly-Gly [Beta-1.12]						Substantially the same results are observed as were observed in Example 10			5-10 fg
